Consider three molecules from patent US10653806B2, “Homomultivalent and heteromultivalent inhibitors of prostate specific membrane antigen (PSMA) and uses thereof” (THE JOHNS HOPKINS UNIVERSITY, priority 2011, dated 2020).

The target of data set [1] is T1, PSMA (Homo sapiens, UniProt Q04609).
T1 construct: endogenous in cells; host or cells: LNCaP cell lysate
Put plainly: fluorescence-based PSMA inhibition assay (NAAG hydrolysis, LNCaP cell lysates, Amplex Red). Type of data set: biochemical. The conditions noted are these: for Ki: PSMA inhibitory activity, Cheng-Prusoff conversion.
Description: PSMA Inhibition. […] Briefly, lysates of LNCaP cell extracts (25 μL) were incubated with the inhibitor (12.5 μL) in the presence of 4 μM NAAG (12.5 μL) for 120 min. The amount of glutamate released upon hydrolysis of NAAG was measured by incubating with a working solution (50 μL) of the Amplex Red Glutamic Acid Kit (Life Technologies, Grand Island, N.Y.) for 60 min. Fluorescence was measured with a VICTOR3V multilabel plate reader (Perkin Elmer Inc., Waltham, Mass.) with excitation at 530 nm and emission at 560 nm. […] Assays were performed in triplicate. Enzyme inhibitory constants (Ki values) were generated using the Cheng-Prusoff conversion. Data analysis was performed using GraphPad Prism version 4.00 for Windows (GraphPad Software, San Diego, Calif.).
PSMA inhibition constant (Ki) values for 1-3 were determined using a fluorescence-based PSMA inhibition assay.

Data set [2] concerns PSMA+PIP and PSMA-flu tumors in a male SCID mouse. The conditions noted are these: 44.4 MBq (1.2 mCi) intravenously, imaged repeatedly over an eight day period.

Each structure is given as a SMILES string.

For orientation: Ki means the equilibrium dissociation constant of an inhibitor or competing ligand from its target. Low values mean a stronger hold on the target, high ones a looser hold on the target.

T1 sequence (Q04609 whole entry): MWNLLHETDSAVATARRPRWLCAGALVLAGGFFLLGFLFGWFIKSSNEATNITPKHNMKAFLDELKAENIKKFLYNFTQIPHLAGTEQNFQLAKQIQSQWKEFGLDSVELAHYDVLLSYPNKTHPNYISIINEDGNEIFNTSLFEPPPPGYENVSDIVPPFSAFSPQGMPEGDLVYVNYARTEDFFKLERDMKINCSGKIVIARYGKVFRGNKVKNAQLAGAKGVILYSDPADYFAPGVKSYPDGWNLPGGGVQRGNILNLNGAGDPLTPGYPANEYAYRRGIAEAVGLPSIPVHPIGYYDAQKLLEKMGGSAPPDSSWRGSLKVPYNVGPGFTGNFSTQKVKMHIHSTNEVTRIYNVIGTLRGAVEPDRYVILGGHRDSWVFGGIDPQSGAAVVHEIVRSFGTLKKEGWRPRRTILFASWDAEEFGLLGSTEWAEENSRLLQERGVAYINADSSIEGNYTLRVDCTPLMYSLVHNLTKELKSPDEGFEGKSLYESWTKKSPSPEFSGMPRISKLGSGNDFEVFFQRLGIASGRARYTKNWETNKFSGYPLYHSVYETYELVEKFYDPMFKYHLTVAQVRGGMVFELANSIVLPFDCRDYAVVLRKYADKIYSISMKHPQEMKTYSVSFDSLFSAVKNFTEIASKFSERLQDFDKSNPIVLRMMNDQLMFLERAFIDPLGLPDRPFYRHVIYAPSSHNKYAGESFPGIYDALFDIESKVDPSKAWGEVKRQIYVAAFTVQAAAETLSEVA

The molecule `NCCCCC(NC(=O)C(CCCCNC(=O)c1cn(CCCCC(NC(=O)CCCCCCC(=O)NCCCC[C@H](NC(=O)NC(CCC(=O)O)C(=O)O)C(=O)O)C(=O)O)nn1)NC(=O)c1nn[nH]c1CCCCC(NC(=O)CCCCCCC(=O)NCCCC[C@H](NC(=O)NC(CCC(=O)O)C(=O)O)C(=O)O)C(=O)O)C(=O)O` (stereo partly drawn) [Compound 2, (7S)-26-(4-((1-((5-amino-1-carboxypenty 1)amino)-1-oxo-6-(1-((7S)-1,3,7,22-tetracarboxy-5,13,20-trioxo-4,6,12,21-tetraazahexacosan-26-yl) 1H-1,2,3-triazole-4-carboxamido)hexan-2-yl)carbamoyl)-1H-1,2,3-triazol-5-yl)-5,13,20-trioxo-4,6,12,21-tetraazahexacosane-1,3,7,22-tetracarboxylic acid] had an inhibition constant (Ki) in data set [1] of 0.1 nM. Also, in data set [1] (relative to compound 1), the “increase in binding affinity (Ki) compared to monovalent 1” value amounted to 5 fold.
Consider `O=C(O)CC[C@H](NC(=O)N[C@@H](CCCCNC(=O)CCCCCCC(=O)NC(CCCCn1cc(C(=O)NCCCCC(NC(=O)c2cn(CCCCC(NC(=O)CCCCCCC(=O)NCCCC[C@H](NC(=O)N[C@@H](CCC(=O)O)C(=O)O)C(=O)O)C(=O)O)nn2)C(=O)NC(CCCCNC(=O)CN2CCN(CC(=O)O)CCN(CC(=O)O)CCN(CC(=O)O)CC2)C(=O)O)nn1)C(=O)O)C(=O)O)C(=O)O.[111In+3]` (stereo partly shown) [[^111In]3], for which the “radiotracer uptake on SPECT-CT” value in data set [2] was “Intense radiotracer uptake was seen only in the PSMA+PIP tumors and in the kidneys”.
Molecule `O=C(O)CCC(NC(=O)N[C@@H](CCCCNC(=O)CCCCCCC(=O)NC(CCCCc1[nH]nnc1C(=O)NC(CCCCNC(=O)c1cn(CCCCC(NC(=O)CCCCCCC(=O)NCCCC[C@H](NC(=O)NC(CCC(=O)O)C(=O)O)C(=O)O)C(=O)O)nn1)C(=O)NC(CCCCNC(=O)CN1CCN(CC(=O)O)CCN(CC(=O)O)CCN(CC(=O)O)CC1)C(=O)O)C(=O)O)C(=O)O)C(=O)O` (stereo partly drawn) [Compound 3, (7S)-26-(4-((1-((1-carboxy-5-(2-(4,7,10-tris(carboxymethyl)-1,4,7,10-tetraazacyclododecan-1-yl)acetamido)pentyl)amino)-1-oxo-6-(1-((7 S)-1,3,7,22-tetracarboxy-5,13,20-trioxo-4,6,12,21-tetraazahexacosan-26-yl)-1H-1,2,3-triazole-4-carboxamido)hexan-2-yl)carbamoyl)-1H-1,2,3-triazol-5-yl)-5,13,20-trioxo-4,6,12,21-tetraazahexacosane-1,3,7,22-tetracarboxylic acid] displayed a Ki in data set [1] of 0.08 nM.
